{"source": "patent US20240293551A1", "about": "“USE OF ST-TYPE LIPID COMPOUNDS IN PREPARATION OF NUCLEIC ACID DELIVERY REAGENT AND RELATED PRODUCT” (INSTITUTE OF BASIC MEDICAL SCIENCES CHINESE ACADEMY OF …, priority 2021, published 2024)", "system": "PGY-sRNA-26", "assay": "In vivo delivery study of lipid-nucleic acid mixture (oral gavage, RT-qPCR of PGY-sRNA-26 in tissues)", "design": "species or system mouse", "settings": "C57BL/6 mice, gavage, 100 μg lipid: 10 nmol PGY-sRNA-26, 12 hours; for oral delivery of single-stranded sRNA nucleic acids into mouse intestinal tissue: intestine; for delivery efficacy over each tissue and blood tested (broad-spectrum delivery): all tissues and blood tested", "in_short": "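C57BL/6 male mice (~6 weeks, 20-24 g), fasted 12 h, were gavaged with 10 nmol 3′-methylated PGY-sRNA-26 mixed with 100 μg lipid (heated 90° C. 15 min), versus saline or free sRNA (n=4 each). After 12 h, blood and tissues were Trizol-extracted; sRNA quantified by stem-loop RT-qPCR relative to U6.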", "data": [{"compound": "C[C@H](CCC(=O)O)[C@H]1CC[C@H]2[C@@H]3C(=O)C[C@@H]4C[C@H](O)CC[C@]4(C)[C@H]3CC[C@]12C", "note": "[Lipid 586]", "values": [{"measurement": "oral delivery of single-stranded sRNA nucleic acids into mouse blood", "result": "can effectively orally deliver"}, {"measurement": "oral delivery of single-stranded sRNA nucleic acids into mouse brain tissue", "result": "can effectively orally deliver"}, {"measurement": "oral delivery of single-stranded sRNA nucleic acids into mouse femur", "result": "can effectively orally deliver"}, {"measurement": "oral delivery of single-stranded sRNA nucleic acids into mouse heart tissue", "result": "can effectively orally deliver"}, {"measurement": "oral delivery of single-stranded sRNA nucleic acids into mouse intestinal tissue", "result": "can effectively orally deliver"}, {"measurement": "oral delivery of single-stranded sRNA nucleic acids into mouse kidney tissue", "result": "can effectively orally deliver"}, {"measurement": "oral delivery of single-stranded sRNA nucleic acids into mouse liver tissue", "result": "can effectively orally deliver"}, {"measurement": "oral delivery of single-stranded sRNA nucleic acids into mouse spleen tissue", "result": "can effectively orally deliver"}, {"measurement": "oral delivery of single-stranded sRNA nucleic acids into mouse stomach tissue", "result": "can effectively orally deliver"}]}, {"compound": "C[C@]12CCC(=O)C=C1CC[C@@H]1[C@@H]2CC[C@]2(C)C(=O)CC[C@@H]12", "note": "[Lipid 587]", "values": [{"measurement": "oral delivery of single-stranded sRNA nucleic acids into mouse blood", "result": "can effectively orally deliver"}, {"measurement": "oral delivery of single-stranded sRNA nucleic acids into mouse brain tissue", "result": "can effectively orally deliver"}, {"measurement": "oral delivery of single-stranded sRNA nucleic acids into mouse heart tissue", "result": "can effectively orally deliver"}, {"measurement": "oral delivery of single-stranded sRNA nucleic acids into mouse kidney tissue", "result": "can effectively orally deliver"}, {"measurement": "oral delivery of single-stranded sRNA nucleic acids into mouse spleen tissue", "result": "can effectively orally deliver"}, {"measurement": "oral delivery of single-stranded sRNA nucleic acids into mouse stomach tissue", "result": "can effectively orally deliver"}]}, {"compound": "C[C@@H]1CC[C@@]2(OC1)O[C@H]1C[C@H]3[C@@H]4CC=C5C[C@@H](O)CC[C@]5(C)[C@H]4CC[C@]3(C)[C@H]1[C@@H]2C", "note": "[Lipid 589]", "values": [{"measurement": "delivery efficacy over each tissue and blood tested (broad-spectrum delivery)", "result": "exhibited the best delivery efficacy"}, {"measurement": "oral delivery of single-stranded sRNA nucleic acids into mouse blood", "result": "can effectively orally deliver"}, {"measurement": "oral delivery of single-stranded sRNA nucleic acids into mouse brain tissue", "result": "can effectively orally deliver"}, {"measurement": "oral delivery of single-stranded sRNA nucleic acids into mouse femur", "result": "can effectively orally deliver"}, {"measurement": "oral delivery of single-stranded sRNA nucleic acids into mouse heart tissue", "result": "can effectively orally deliver"}, {"measurement": "oral delivery of single-stranded sRNA nucleic acids into mouse intestinal tissue", "result": "can effectively orally deliver"}, {"measurement": "oral delivery of single-stranded sRNA nucleic acids into mouse kidney tissue", "result": "can effectively orally deliver"}, {"measurement": "oral delivery of single-stranded sRNA nucleic acids into mouse liver tissue", "result": "can effectively orally deliver"}, {"measurement": "oral delivery of single-stranded sRNA nucleic acids into mouse lung tissue", "result": "can effectively orally deliver"}, {"measurement": "oral delivery of single-stranded sRNA nucleic acids into mouse spleen tissue", "result": "can effectively orally deliver"}, {"measurement": "oral delivery of single-stranded sRNA nucleic acids into mouse stomach tissue", "result": "can effectively orally deliver"}]}, {"compound": "CC(=O)[C@H]1CC[C@H]2[C@@H]3CC=C4C[C@@H](O)CC[C@]4(C)[C@H]3CC[C@]12C", "note": "[Lipid 590]", "values": [{"measurement": "delivery efficacy over each tissue and blood tested (broad-spectrum delivery)", "result": "exhibited the best delivery efficacy"}, {"measurement": "oral delivery of single-stranded sRNA nucleic acids into mouse blood", "result": "can effectively orally deliver"}, {"measurement": "oral delivery of single-stranded sRNA nucleic acids into mouse brain tissue", "result": "can effectively orally deliver"}, {"measurement": "oral delivery of single-stranded sRNA nucleic acids into mouse femur", "result": "can effectively orally deliver"}, {"measurement": "oral delivery of single-stranded sRNA nucleic acids into mouse heart tissue", "result": "can effectively orally deliver"}, {"measurement": "oral delivery of single-stranded sRNA nucleic acids into mouse intestinal tissue", "result": "can effectively orally deliver"}, {"measurement": "oral delivery of single-stranded sRNA nucleic acids into mouse kidney tissue", "result": "can effectively orally deliver"}, {"measurement": "oral delivery of single-stranded sRNA nucleic acids into mouse liver tissue", "result": "can effectively orally deliver"}, {"measurement": "oral delivery of single-stranded sRNA nucleic acids into mouse lung tissue", "result": "can effectively orally deliver"}, {"measurement": "oral delivery of single-stranded sRNA nucleic acids into mouse spleen tissue", "result": "can effectively orally deliver"}, {"measurement": "oral delivery of single-stranded sRNA nucleic acids into mouse stomach tissue", "result": "can effectively orally deliver"}]}, {"compound": "C#C[C@]1(O)CC[C@H]2[C@@H]3CCc4cc(O)ccc4[C@H]3CC[C@@]21C", "note": "[Lipid 591]", "values": [{"measurement": "oral delivery of single-stranded sRNA nucleic acids into mouse brain tissue", "result": "can effectively orally deliver"}, {"measurement": "oral delivery of single-stranded sRNA nucleic acids into mouse femur", "result": "can effectively orally deliver"}, {"measurement": "oral delivery of single-stranded sRNA nucleic acids into mouse heart tissue", "result": "can effectively orally deliver"}, {"measurement": "oral delivery of single-stranded sRNA nucleic acids into mouse intestinal tissue", "result": "can effectively orally deliver"}, {"measurement": "oral delivery of single-stranded sRNA nucleic acids into mouse kidney tissue", "result": "can effectively orally deliver"}, {"measurement": "oral delivery of single-stranded sRNA nucleic acids into mouse lung tissue", "result": "can effectively orally deliver"}, {"measurement": "oral delivery of single-stranded sRNA nucleic acids into mouse spleen tissue", "result": "can effectively orally deliver"}, {"measurement": "oral delivery of single-stranded sRNA nucleic acids into mouse stomach tissue", "result": "can effectively orally deliver"}]}, {"compound": "C[C@H](CCC(=O)O)[C@H]1CC[C@H]2[C@@H]3[C@@H](O)C[C@@H]4C[C@H](O)CC[C@]4(C)[C@H]3CC[C@]12C", "note": "[Lipid 592]", "values": [{"measurement": "delivery efficacy over each tissue and blood tested (broad-spectrum delivery)", "result": "exhibited the best delivery efficacy"}, {"measurement": "oral delivery of single-stranded sRNA nucleic acids into mouse blood", "result": "can effectively orally deliver"}, {"measurement": "oral delivery of single-stranded sRNA nucleic acids into mouse brain tissue", "result": "can effectively orally deliver"}, {"measurement": "oral delivery of single-stranded sRNA nucleic acids into mouse femur", "result": "can effectively orally deliver"}, {"measurement": "oral delivery of single-stranded sRNA nucleic acids into mouse heart tissue", "result": "can effectively orally deliver"}, {"measurement": "oral delivery of single-stranded sRNA nucleic acids into mouse intestinal tissue", "result": "can effectively orally deliver"}, {"measurement": "oral delivery of single-stranded sRNA nucleic acids into mouse kidney tissue", "result": "can effectively orally deliver"}, {"measurement": "oral delivery of single-stranded sRNA nucleic acids into mouse liver tissue", "result": "can effectively orally deliver"}, {"measurement": "oral delivery of single-stranded sRNA nucleic acids into mouse lung tissue", "result": "can effectively orally deliver"}, {"measurement": "oral delivery of single-stranded sRNA nucleic acids into mouse spleen tissue", "result": "can effectively orally deliver"}, {"measurement": "oral delivery of single-stranded sRNA nucleic acids into mouse stomach tissue", "result": "can effectively orally deliver"}]}, {"compound": "C[C@]12CC[C@@H]3c4ccc(O)cc4CC[C@H]3[C@@H]1C[C@@H](O)[C@@H]2O", "note": "[Lipid 633]", "values": [{"measurement": "delivery efficacy over each tissue and blood tested (broad-spectrum delivery)", "result": "exhibited the best delivery efficacy"}, {"measurement": "oral delivery of single-stranded sRNA nucleic acids into mouse blood", "result": "can effectively orally deliver"}, {"measurement": "oral delivery of single-stranded sRNA nucleic acids into mouse brain tissue", "result": "can effectively orally deliver"}, {"measurement": "oral delivery of single-stranded sRNA nucleic acids into mouse femur", "result": "can effectively orally deliver"}, {"measurement": "oral delivery of single-stranded sRNA nucleic acids into mouse heart tissue", "result": "can effectively orally deliver"}, {"measurement": "oral delivery of single-stranded sRNA nucleic acids into mouse intestinal tissue", "result": "can effectively orally deliver"}, {"measurement": "oral delivery of single-stranded sRNA nucleic acids into mouse kidney tissue", "result": "can effectively orally deliver"}, {"measurement": "oral delivery of single-stranded sRNA nucleic acids into mouse liver tissue", "result": "can effectively orally deliver"}, {"measurement": "oral delivery of single-stranded sRNA nucleic acids into mouse lung tissue", "result": "can effectively orally deliver"}, {"measurement": "oral delivery of single-stranded sRNA nucleic acids into mouse spleen tissue", "result": "can effectively orally deliver"}, {"measurement": "oral delivery of single-stranded sRNA nucleic acids into mouse stomach tissue", "result": "can effectively orally deliver"}]}]}
